Assay results published in PMC9934367, “Functional impact of subunit composition and compensation on Drosophila melanogaster nicotinic receptors–targets of neonicotinoids” (PLOS Genetics, 2023).
Where two headings read alike, the source gives them in different places.

Assays:
[1] = tested on: T1, Dα1/Dα2/Dα3/Dβ1/Dβ2 nAChR; test: Voltage-clamp electrophysiology, nAChR expressed in X. laevis oocytes; type: cell-based, D. melanogaster; conditions: mean ± standard error (n = 5)
T1 construct: Dα1 (NP_524481); Dα2 (NP_524482); Dβ1 (NP_523927); Dβ2 (NP_524483); expressed in transfected cells; host or cells: Xenopus laevis oocytes (cRNA injection)
Procedure: (§1) cDNAs of the nAChR subunits and co-factors were cloned into pcDNA3.1 (+) vector (Thermo Fisher Scientific). The accession numbers of the nAChR subunits and cofactors are as follows: Dα1 (NP_524481), Dα2 (NP_524482), Dα3 (NP_525079), Dα4 (CAB77445), Dβ1 (NP_523927), Dβ2 (NP_524483), Dβ3 (NP_525098), DmRIC-3 (CAP16647), DmUNC-50 (NP_649813), and DmTMX3 (NP_648847). cRNAs were prepared using the mMESSAGE mMACHINE T7 ULTRA Transcription Kit (Thermo Fisher Scientific, #AM1345) according to the manual with the cDNA template which was cut with appropriate restriction enzymes at the 3’ end of the cDNA.
(§2) We minimised the use of X. laevis according to the UK Animals (Scientific Procedures) Act, 1986. […] Oocytes were defolliculated after collagenase treatment in Ca^2+-free standard oocyte saline (Ca^2+-free SOS). cRNAs of the nAChR subunits and co-factors mixed at a concentration of 0.1 mg/mL was injected into oocytes at a volume of 50 nL. Then the oocytes were incubated in the incubation medium (SOS supplemented with sodium pyruvate (Nacalai Tesque, #13058–12), penicillin-streptomycin (MilliporeSigma, #P4333), gentamycin (Nacalai Tesque, #16672–04), and 4% horse serum (Thermo Fisher Scientific, #26050–070) for 3−4 days prior to electrophysiology.
(§3) Each defolliculated X. laevis oocyte was secured in a Perspex recording chamber and perfused with the standard oocyte saline (SOS) containing 0.5 μM atropine (SOSA) at a flow rate of 7−10 mL/min [48]. Two glass electrodes filled with 2 M KCl were impaled into each oocyte and the membrane potential was clamped at -100 mV. […] The peak amplitude of the response was measured and analysed by pCLAMP (Molecular Devices, USA).
(§4) Y=Imax/1+10^(logEC50‐X)nH
(§5) Where Y is the normalised response, X is log[ligand (M)], EC50 is the half maximal concentration (M), Imax is the maximum normalised response and nH is the Hill coefficient.

[2] = target: T2, Dα1/Dα2/Dβ1 nAChR (Drosophila melanogaster, UniProt P04755+P09478+P17644); test: as above; type: cell-based, D. melanogaster
T2 construct: Dα1 (NP_524481); Dα2 (NP_524482); Dβ1 (NP_523927); expressed in transfected cells; host or cells: Xenopus laevis oocytes (cRNA injection)
Procedure: as §1, §2, §3, §4, §5

[3] = target: T3, Dα1/Dα2/Dβ1/Dβ2 nAChR (Drosophila melanogaster, UniProt P04755+P09478+P17644+P25162); test: as above; type: cell-based, D. melanogaster; conditions: mean ± standard error (n = 5)
T3 construct: Dα1 (NP_524481); Dα2 (NP_524482); Dβ1 (NP_523927); Dβ2 (NP_524483); expressed in transfected cells; host or cells: Xenopus laevis oocytes (cRNA injection)
Procedure: as §1, §2, §3, §4, §5

[4] = target: T4, Dα1/Dβ1 nAChR (Drosophila melanogaster, UniProt P04755+P09478); test: as above; type: cell-based, D. melanogaster; conditions: mean ± standard error (n = 5)
T4 construct: Dα1 (NP_524481); Dβ1 (NP_523927); expressed in transfected cells; host or cells: Xenopus laevis oocytes (cRNA injection)
Procedure: as §1, §2, §3, §4, §5

[5] = target: T5, Dα2/Dα3/Dβ1/Dβ2 nAChR (Drosophila melanogaster, UniProt P04755+P17644+P25162+Q9W3G6); test: as above; type: cell-based, D. melanogaster; conditions: mean ± standard error (n = 5)
T5 construct: Dα2 (NP_524482); Dβ1 (NP_523927); Dβ2 (NP_524483); expressed in transfected cells; host or cells: Xenopus laevis oocytes (cRNA injection)
Procedure: as §1, §2, §3, §4, §5

[6] = target: T6, Dα3/Dβ1/Dβ2 nAChR (Drosophila melanogaster, UniProt P04755+P25162+Q9W3G6); test: as above; type: cell-based, D. melanogaster; conditions: Dα3/Dβ1/Dβ2 nAChR
T6 construct: Dβ1 (NP_523927); Dβ2 (NP_524483); expressed in transfected cells; host or cells: Xenopus laevis oocytes (cRNA injection)
Procedure: as §1, §2, §3, §4, §5

[7] = target: T7, Dα1/Dα2/Dβ1/Dβ2/Dβ3 nAChR; test: as above; type: cell-based, D. melanogaster; conditions: mean ± standard error (n = 5); for Imax: normalised to maximum ACh response
T7 construct: Dα1 (NP_524481); Dα2 (NP_524482); Dβ1 (NP_523927); Dβ2 (NP_524483); expressed in transfected cells; host or cells: Xenopus laevis oocytes (cRNA injection)
Procedure: as §1, §2, §3, §4, §5

[8] = target: T8, Dα1/Dα3/Dβ1/Dβ2/Dβ3 nAChR; test: as above; type: cell-based, D. melanogaster; conditions: mean ± standard error (n = 5); for Imax: normalised to maximum ACh response
T8 construct: Dα1 (NP_524481); Dβ1 (NP_523927); Dβ2 (NP_524483); expressed in transfected cells; host or cells: Xenopus laevis oocytes (cRNA injection)
Procedure: as §1, §2, §3, §4, §5

[9] = target: T9, Dα2/Dα3/Dβ1/Dβ2/Dβ3 nAChR; test: as above; type: cell-based, D. melanogaster; conditions: mean ± standard error (n = 5); for Imax: normalised to maximum ACh response
T9 construct: Dα2 (NP_524482); Dβ1 (NP_523927); Dβ2 (NP_524483); expressed in transfected cells; host or cells: Xenopus laevis oocytes (cRNA injection)
Procedure: as §1, §2, §3, §4, §5

[10] = tested on: D. melanogaster larvae; test: Pupariation rate assay; type: in vivo
Procedure: All flies were raised at 25°C under 12 h/12 h light/dark cycle. The animals were reared on standard fly food containing 5.5 g agar, 100 g glucose, 40 g dry yeast, 90 g cornflour, 3 mL propionic acid, and 3.5 mL 10% butyl p-hydroxybenzoate (Nacalai Tesque, Japan, #06327–15) in 70% ethanol per liter. The control strain was w^1118, and transgenic flies are as follows: UAS-nAChRα1 RNAi (#28688) was obtained from the Bloomington Drosophila Stock Center (BDSC); UAS-nAChRα2 RNAi (UAS-Dα2 RNAi, #10760), UAS-nAChRα3 RNAi (UAS-Dα3 RNAi, #101806); UAS-dicer2 (#60009) were obtained from the Vienna Drosophila Resource Center (VDRC); and UAS-mCD8::GFP (#108068) was obtained from Kyoto Stock Center. elav-Gal4 (3A3) was obtained from Michael B. O’Connor. nAChRα3-knock-in 2A-Gal4 (Dα3-knock-in T2A-Gal4) was generated by the CRISPR/Cas9 system as described in detail below.
Eggs were laid on grape juice plates with yeast paste at 25°C for 6 h. […] After a week of incubation at 25°C, pupal numbers were scored in each vial.

[11] = efficacy, mean ± standard error (n = 5)
[12] = normalised to maximum ACh response
[13] = mean ± standard error (n = 5), read-out: pEC50 (converted)
[14] = normalised to maximum ACh response, mean ± standard error (n = 5)
[15] = RNAi of Dα1 (pan-neuronal knockdown) vs control
[16] = RNAi of Dα2 (pan-neuronal knockdown) vs control

Row | Compound | Imax ([1]; efficacy) | Imax [2, 11] | Imax ([3]; efficacy) | Imax ([4]; efficacy) | Imax ([5]; efficacy) | Imax [6, 11] | pEC50 [1] | Imax [1, 12] | Imax [2, 14] | EC50 [3] [nM] | Imax [3, 12] | pEC50 [7] | Imax [7] | pEC50 [8] | Imax [8] | EC50 [4] [nM] | Imax [4, 12] | EC50 [5] [nM] | Imax [5, 12] | pEC50 [9] | other results
1 | CC(=O)OCC[N+](C)(C)C [ACh, acetylcholine] | 1 | 1 | 1 | 1 | 1 | 1 |  |  |  |  |  |  |  |  |  |  |  |  |  |  | 
2 | CN/C(=N\[N+](=O)[O-])NCc1cnc(Cl)s1 [Clothianidin, clothianidin] | 0.812 | 0.699 | 0.800 | 0.508 | 0.634 | 0.492 | 6.59 ± 0.07 | 0.812 ± 0.019 | 0.699 ± 0.034 | 490 | 0.800 ± 0.033 | 5.67 ± 0.11 | 0.974 ± 0.041 | 7.60 ± 0.12 | 0.531 ± 0.026 | 74.1 | 0.508 ± 0.015 | 51.3 | 0.634 ± 0.020 | 7.46 ± 0.06 | Imax ([1]; normalised to maximum ACh response, listed as clothianidin): 0.812; EC50 [2, 13]: 8510 nM; Imax ([7]; listed as clothianidin): 0.974; Imax [9]: 0.695 ± 0.014; Imax [6, 14]: 0.492 ± 0.016; EC50 ([6]; read-out: EC50): 34.7 nM; toxicity in larvae, effect of RNAi [10, 15]: reduced toxicity; toxicity in larvae, effect of RNAi [10, 16]: reduced toxicity
3 | O=[N+]([O-])NC1=NCCN1Cc1ccc(Cl)nc1 [Imidacloprid, imidacloprid] | 0.142 | 0.031 | 0.165 | 0.122 | 0.125 | 0.039 | 6.47 ± 0.14 | 0.142 ± 0.011 | 0.031 ± 0.002 | 355 | 0.165 ± 0.016 | 6.27 ± 0.21 | 0.080 ± 0.007 | 7.72 ± 0.11 | 0.140 ± 0.008 | 69.2 | 0.122 ± 0.007 | 100 | 0.125 ± 0.018 | 7.75 ± 0.31 | Imax ([1]; normalised to maximum ACh response, listed as imidacloprid): 0.142; EC50 [2, 13]: 195 nM; Imax ([7]; listed as imidacloprid): 0.080; Imax [9]: 0.021 ± 0.003; Imax ([9]; listed as imidacloprid): 0.021; Imax [6, 14]: 0.039 ± 0.002; EC50 ([6]; read-out: EC50): 5.25 nM; toxicity in larvae, effect of RNAi [10, 15]: reduced toxicity; toxicity in larvae, effect of RNAi [10, 16]: reduced toxicity
4 | N#C/N=C1\SCCN1Cc1ccc(Cl)nc1 [Thiacloprid, thiacloprid] | 0.059 | 0.025 | 0.074 | 0.091 | 0.017 | 0.022 | 7.18 ± 0.17 | 0.059 ± 0.006 | 0.025 ± 0.001 | 79.4 | 0.074 ± 0.014 | 7.71 ± 0.43 | 0.023 ± 0.004 | 8.63 ± 0.23 | 0.089 ± 0.009 | 16.2 | 0.091 ± 0.009 | 8.32 | 0.017 ± 0.002 | 8.31 ± 0.17 | Imax ([1]; normalised to maximum ACh response, listed as thiacloprid): 0.059; EC50 ([2]; read-out: EC50): 120 nM; Imax ([7]; listed as thiacloprid): 0.023; Imax [9]: 0.010 ± 0.001; Imax ([9]; listed as thiacloprid): 0.010; EC50 [6, 13]: 4.79 nM; Imax [6, 14]: 0.022 ± 0.003; toxicity in larvae, effect of RNAi [10, 15]: reduced toxicity; toxicity in larvae, effect of RNAi [10, 16]: reduced toxicity
